Data: US8558002B2, “Sulfoximines as kinase inhibitors” (Allergan, Inc., priority 2006, dated 2013)
pIC50: −log10 of the molar value.

Legend:
[1] = molecular target: T1, PDGFRβ (Homo sapiens, UniProt P09619); assay: PDGFRβ Kinase Assay (poly-Glu-Tyr ELISA); type: biochemical; settings: purified cytoplasmic domain PDGFR-b protein, 36 μM ATP
T1 construct: 200-300 ng purified cytoplasmic domain PDGFR-b protein (Millipore); purchased Millipore
Method: Biochemical PDGFRβ kinase assays were performed in 96 well microtiter plates that were coated overnight with 75 μg of poly-Glu-Tyr (4:1) in 10 mM Phosphate Buffered Saline (PBS), pH 7.4. The coated plates were washed with 2 mls per well PBS+0.05% Tween-20 (PBS-T), blocked by incubation with PBS containing 1% BSA, then washed with 2 mls per well PBS-T prior to starting the reaction. Reactions were carried out in 100 μL reaction volumes containing 36 μM ATP in kinase buffer (50 mM Hepes buffer pH 7.4, 20 mM MgCl2, 0.1 mM MnCl2 and 0.2 mM Na3VO4). Test compounds were reconstituted in 100% DMSO and added to the reaction to give a final DMSO concentration of 5%. Reactions were initiated by the addition 20 ul per well of kinase buffer containing 200-300 ng purified cytoplasmic domain PDGFR-b protein (Millipore). Following a 60 minute incubation at 30° C., the reactions were washed 2 mls per well PBS-T. […] of a monoclonal anti-phosphotyrosine antibody-peroxidase conjugate diluted 1:10,000 in PBS-T was added to the wells for 30 minutes. Following a 2 mls per well wash with PBS-Tween-20, 100 μl of O-Phenylenediamine Dihydrochloride in phosphate-citrate buffer, containing urea hydrogen peroxide, was added to the wells for 7-10 minutes as a colorimetric substrate for the peroxidase. The reaction was terminated by the addition of 100 μl of 2.5N H2SO4 to each well and read using a microplate ELISA reader set at 492 nm. IC50 values for compound inhibition were calculated directly from graphs of optical density (arbitrary units) versus compound concentration following subtraction of blank values.

[2] = molecular target: T2, VEGFR2 (Homo sapiens, UniProt P35968); assay: VEGFR2 Cellular Assay (FLIPR, VEGF induced increases in intracellular calcium in HUVEC); type: cell-based; set-up: host or cells: HUVEC; settings: VEGF165 stimulation (10 ng/mL), Fluo-4
Method: Automated FLIPR (Fluorometric Imaging Plate Reader) technology was used to screen for inhibitors of VEGF induced increases in intracellular calcium levels in fluorescent dye loaded endothelial cells. HUVEC (human umbilical vein endothelial cells) (Clonetics) were seeded in 384-well fibronectin coated black-walled plates overnight @ 37° C./5% CO2. Cells were loaded with calcium indicator Fluo-4 for 45 minutes at 37° C. Cells were washed 2 times (El×405, Biotek Instruments) to remove extracellular dye. For screening, cells were pre-incubated with test agents for 30 minutes, at a single concentration (10 uM) or at concentrations ranging from 0.0001 to 10.0 uM followed by VEGF165 stimulation (10 ng/mL). Changes in fluorescence at 516 nm were measured simultaneously in all 384 wells using a cooled CCD camera. Data were generated by determining max-min fluorescence levels for unstimulated, stimulated, and drug treated samples. IC50 values for test compounds were calculated from % inhibition of VEGF stimulated responses in the absence of inhibitor.
Target sequence in this assay (P35968 20-1356): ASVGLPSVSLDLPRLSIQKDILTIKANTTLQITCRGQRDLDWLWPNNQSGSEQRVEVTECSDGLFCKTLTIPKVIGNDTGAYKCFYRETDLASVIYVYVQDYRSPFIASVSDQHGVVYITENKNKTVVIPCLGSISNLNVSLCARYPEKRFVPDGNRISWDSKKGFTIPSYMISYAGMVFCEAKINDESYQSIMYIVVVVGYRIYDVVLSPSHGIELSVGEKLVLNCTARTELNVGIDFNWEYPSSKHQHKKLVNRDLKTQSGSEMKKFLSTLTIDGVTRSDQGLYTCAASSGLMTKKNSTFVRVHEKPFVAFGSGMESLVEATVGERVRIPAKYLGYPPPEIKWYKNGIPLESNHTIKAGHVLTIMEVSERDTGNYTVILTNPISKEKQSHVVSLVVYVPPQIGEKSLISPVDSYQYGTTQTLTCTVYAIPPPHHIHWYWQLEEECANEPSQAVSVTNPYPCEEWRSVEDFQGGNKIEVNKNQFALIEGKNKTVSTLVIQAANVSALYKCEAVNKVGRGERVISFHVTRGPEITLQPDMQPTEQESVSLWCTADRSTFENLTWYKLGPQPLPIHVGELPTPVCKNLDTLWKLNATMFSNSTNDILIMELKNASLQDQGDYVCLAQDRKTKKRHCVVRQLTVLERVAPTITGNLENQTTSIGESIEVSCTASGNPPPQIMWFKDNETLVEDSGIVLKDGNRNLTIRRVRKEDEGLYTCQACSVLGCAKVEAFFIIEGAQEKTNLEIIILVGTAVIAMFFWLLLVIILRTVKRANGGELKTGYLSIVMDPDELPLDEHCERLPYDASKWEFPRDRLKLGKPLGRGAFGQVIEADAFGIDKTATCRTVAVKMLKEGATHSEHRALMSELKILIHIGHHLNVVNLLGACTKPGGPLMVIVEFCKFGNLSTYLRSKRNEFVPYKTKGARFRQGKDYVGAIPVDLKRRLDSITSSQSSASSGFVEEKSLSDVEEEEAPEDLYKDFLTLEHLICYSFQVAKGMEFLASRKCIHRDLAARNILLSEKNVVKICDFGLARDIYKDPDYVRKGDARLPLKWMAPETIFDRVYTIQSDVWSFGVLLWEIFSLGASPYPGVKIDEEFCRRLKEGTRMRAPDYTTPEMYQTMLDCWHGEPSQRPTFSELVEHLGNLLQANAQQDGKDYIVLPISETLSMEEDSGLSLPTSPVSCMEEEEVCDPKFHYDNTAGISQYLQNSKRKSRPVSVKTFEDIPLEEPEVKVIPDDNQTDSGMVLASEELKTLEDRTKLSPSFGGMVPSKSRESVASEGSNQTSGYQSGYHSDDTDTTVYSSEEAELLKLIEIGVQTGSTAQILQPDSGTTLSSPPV

[3] = molecular target: T2, VEGFR2; assay: VEGFR2 Kinase Assay (biochemical KDR kinase, poly-Glu-Tyr ELISA); set-up: 200-300 ng purified cytoplasmic domain KDR protein; purchased BPS Bioscience; settings: purified cytoplasmic domain KDR protein, 2.7 μM ATP
Method: Biochemical KDR kinase assays were performed in 96 well microtiter plates that were coated overnight with 75 μg/well of poly-Glu-Tyr (4:1) in 10 mM Phosphate Buffered Saline (PBS), pH 7.4. The coated plates were washed with 2 mls per well PBS+0.05% Tween-20 (PBS-T), blocked by incubation with PBS containing 1% BSA, then washed with 2 mls per well PBS-T prior to starting the reaction. Reactions were carried out in […] reaction volumes containing 2.7 μM ATP in kinase buffer (50 mM Hepes buffer pH 7.4, 20 mM MgCl2, 0.1 mM MnCl2 and 0.2 mM Na3VO4). Test compounds were reconstituted in 100% DMSO and added to the reaction to give a final DMSO concentration of 5%. Reactions were initiated by the addition 20 ul per well of kinase buffer containing 200-300 ng purified cytoplasmic domain KDR protein (BPS Bioscience, San Diego, Calif.). Following a 15 minute incubation at 30° C., the reactions were washed 2 mls per well PBS-T. 100 μl of a monoclonal anti-phosphotyrosine antibody-peroxidase conjugate diluted 1:10,000 in PBS-T was added to the wells for 30 minutes. Following a 2 mls per well wash with PBS-Tween-20, 100 μl of O-Phenylenediamine Dihydrochloride in phosphate-citrate buffer, containing urea hydrogen peroxide, was added to the wells for 7-10 minutes as a colorimetric substrate for the peroxidase. The reaction was terminated by the addition of 100 μl of 2.5NH2SO4 to each well and read using a microplate ELISA reader set at 492 nm. IC50 values for compound inhibition were calculated directly from graphs of optical density (arbitrary units) versus compound concentration following subtraction of blank values.
Target sequence in this assay (P35968 786-1356 limits assumed): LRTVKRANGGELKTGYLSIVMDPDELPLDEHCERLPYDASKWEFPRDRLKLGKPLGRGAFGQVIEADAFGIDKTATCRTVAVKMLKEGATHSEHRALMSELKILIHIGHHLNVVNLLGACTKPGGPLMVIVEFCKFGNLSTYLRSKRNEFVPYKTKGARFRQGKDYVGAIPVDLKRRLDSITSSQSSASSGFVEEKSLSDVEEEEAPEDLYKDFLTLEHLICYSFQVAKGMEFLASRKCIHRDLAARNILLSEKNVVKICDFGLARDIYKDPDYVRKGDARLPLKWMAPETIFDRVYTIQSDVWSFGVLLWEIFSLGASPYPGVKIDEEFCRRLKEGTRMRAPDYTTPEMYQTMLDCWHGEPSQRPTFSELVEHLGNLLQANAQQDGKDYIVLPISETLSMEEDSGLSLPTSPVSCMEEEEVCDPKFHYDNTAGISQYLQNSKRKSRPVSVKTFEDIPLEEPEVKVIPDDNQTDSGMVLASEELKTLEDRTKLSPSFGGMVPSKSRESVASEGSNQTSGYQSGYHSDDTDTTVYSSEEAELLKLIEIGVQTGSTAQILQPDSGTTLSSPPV

[4] = molecular target: VEGFR1 (Homo sapiens, UniProt P17948); assay: VEGFR1 Kinase; type: biochemical
Chain of VEGFR1 (P17948 27-1338, species assumed): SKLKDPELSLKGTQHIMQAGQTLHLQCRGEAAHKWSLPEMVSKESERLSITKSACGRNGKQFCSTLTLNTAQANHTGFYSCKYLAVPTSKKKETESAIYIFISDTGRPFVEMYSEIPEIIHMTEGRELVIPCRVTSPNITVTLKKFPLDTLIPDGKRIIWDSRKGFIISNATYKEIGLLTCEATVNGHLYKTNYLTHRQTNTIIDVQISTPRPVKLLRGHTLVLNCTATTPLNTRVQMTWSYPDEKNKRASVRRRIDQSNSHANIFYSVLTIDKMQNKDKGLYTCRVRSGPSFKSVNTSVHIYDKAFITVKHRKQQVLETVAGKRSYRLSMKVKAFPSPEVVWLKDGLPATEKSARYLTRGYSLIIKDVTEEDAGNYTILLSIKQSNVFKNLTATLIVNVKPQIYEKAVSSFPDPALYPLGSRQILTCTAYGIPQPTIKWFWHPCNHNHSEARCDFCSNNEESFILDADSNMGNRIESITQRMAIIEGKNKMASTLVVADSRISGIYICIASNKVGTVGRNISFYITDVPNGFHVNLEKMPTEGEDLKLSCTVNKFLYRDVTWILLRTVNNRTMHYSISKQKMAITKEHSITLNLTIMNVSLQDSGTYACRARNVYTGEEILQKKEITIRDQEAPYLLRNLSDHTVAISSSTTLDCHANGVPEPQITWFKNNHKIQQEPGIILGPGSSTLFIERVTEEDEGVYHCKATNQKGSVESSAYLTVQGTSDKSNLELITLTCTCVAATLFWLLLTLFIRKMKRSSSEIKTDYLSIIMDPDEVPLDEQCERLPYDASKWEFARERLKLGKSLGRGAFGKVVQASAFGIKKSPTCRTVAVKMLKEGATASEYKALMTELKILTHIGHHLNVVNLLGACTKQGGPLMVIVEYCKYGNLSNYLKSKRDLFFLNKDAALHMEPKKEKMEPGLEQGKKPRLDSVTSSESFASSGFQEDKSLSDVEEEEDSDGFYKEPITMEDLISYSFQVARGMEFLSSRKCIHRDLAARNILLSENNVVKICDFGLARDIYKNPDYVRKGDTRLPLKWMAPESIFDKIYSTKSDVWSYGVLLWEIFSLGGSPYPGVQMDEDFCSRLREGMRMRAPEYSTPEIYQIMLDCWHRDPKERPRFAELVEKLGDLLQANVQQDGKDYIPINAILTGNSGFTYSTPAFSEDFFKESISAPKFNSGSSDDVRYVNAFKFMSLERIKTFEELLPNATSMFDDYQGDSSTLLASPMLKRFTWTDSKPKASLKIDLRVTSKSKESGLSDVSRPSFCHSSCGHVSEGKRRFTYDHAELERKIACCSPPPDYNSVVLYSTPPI

T1 sequence (P09619 554-1106 limits assumed): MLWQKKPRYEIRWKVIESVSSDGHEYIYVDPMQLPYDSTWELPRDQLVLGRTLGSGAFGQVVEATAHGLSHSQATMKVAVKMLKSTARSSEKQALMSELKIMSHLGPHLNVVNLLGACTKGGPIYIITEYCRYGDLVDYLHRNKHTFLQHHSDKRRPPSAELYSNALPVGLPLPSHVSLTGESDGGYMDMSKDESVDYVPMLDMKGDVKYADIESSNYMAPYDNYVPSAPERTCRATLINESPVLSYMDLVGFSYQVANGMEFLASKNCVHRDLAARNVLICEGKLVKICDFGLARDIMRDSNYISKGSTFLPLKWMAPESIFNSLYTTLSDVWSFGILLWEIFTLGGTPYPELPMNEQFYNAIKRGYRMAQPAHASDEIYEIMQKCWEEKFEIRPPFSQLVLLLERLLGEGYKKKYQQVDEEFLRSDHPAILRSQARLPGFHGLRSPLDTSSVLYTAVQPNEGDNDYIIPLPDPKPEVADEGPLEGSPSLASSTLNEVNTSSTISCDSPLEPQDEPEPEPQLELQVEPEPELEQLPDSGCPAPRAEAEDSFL

| Structure (SMILES) | pIC50 [1] | pIC50 [2] | pIC50 [3] | pIC50 [4] |
| --- | --- | --- | --- | --- |
| COC(=O)CCCCS(=O)(CCCCC(=O)OC)=NC(=O)c1cnc(N)c(C#Cc2cccc(NC(=O)c3cc(C(F)(F)F)ccc3F)c2)c1 [Example 10, Dimethyl 5,5′-[N-({6-amino-5-[(3-{[2-fluoro-5-(trifluoromethyl)benzoyl]amino}phenyl)ethynyl]pyridin-3-yl}carbonyl)sulfonimidoyl]dipentanoate] | 7.16 | 8.22 | 7.70 |  |
| COC(=O)CCCCS(=O)(CCCCC(=O)OC)=NC(=O)c1cnc(N)c(C#Cc2cccc(C(=O)Nc3cccc(OC)c3)c2)c1 [Example 11, Dimethyl 5,5′-[N-({6-amino-5-[(3-{[(3-methoxyphenyl)amino]carbonyl}phenyl)ethynyl]pyridin-3-yl}carbonyl)sulfonimidoyl]dipentanoate] | 7.42 | 8.70 | 8.40 |  |
| COC(=O)CCCCS(=O)(CCCCC(=O)OC)=NC(=O)c1cnc(N)c(C#Cc2cccc(NC(=O)c3ccc(F)c(Cl)c3)c2)c1 [Example 4, Dimethyl 5,5′-(N-{[6-amino-5-({3-[(3-chloro-4-fluorobenzoyl)amino]phenyl}ethynyl)pyridin-3-yl]carbonyl}sulfonimidoyl)dipentanoate] | 7.47 | 8.70 | 8.10 |  |
| COC(=O)CCCCS(=O)(CCCCC(=O)OC)=NC(=O)c1cnc(N)c(C#Cc2cccc(C(=O)Nc3cc(C)ccc3F)c2)c1 [Example 14, Dimethyl 5,5′-[N-({6-amino-5-[(3-{[(2-fluoro-5-methylphenyl)amino]carbonyl}phenyl)ethynyl]pyridin-3-yl}carbonyl)sulfonimidoyl]dipentanoate] | 7.30 | > 9.00 | 7.96 | 7.85 |
| COC(=O)CCCCS(=O)(CCCCC(=O)OC)=NC(=O)c1cnc(N)c(C#Cc2cccc(NC(=O)c3cccc(SC)c3)c2)c1 [Example 3, Dimethyl 5,5′-[N-({6-amino-5-[(3-{[3-(methylthio)benzoyl]amino}phenyl)ethynyl]pyridin-3-yl}carbonyl)sulfonimidoyl]dipentanoate] |  | 8.40 | 8.30 |  |
| COC(=O)CCCCS(=O)(CCCCC(=O)OC)=NC(=O)c1cnc(N)c(C#Cc2cccc(NC(=O)c3cccc(C(F)(F)F)c3)c2)c1 [Example 5, Dimethyl 5,5′-[N-({6-amino-5-[(3-{[3-(trifluoromethyl)benzoyl]amino}phenyl)ethynyl]pyridin-3-yl}carbonyl)sulfonimidoyl]dipentanoate] | 8.00 | 8.52 | 8.00 |  |
| COC(=O)CCCCS(=O)(CCCCC(=O)OC)=NC(=O)c1cnc(N)c(C#Cc2cccc(NC(=O)c3cc(C)ccc3F)c2)c1 [Example 7, Dimethyl 5,5′-(N-{[6-amino-5-({3-[(2-fluoro-5-methylbenzoyl)amino]phenyl}ethynyl)pyridin-3-yl]carbonyl}sulfonimidoyl)dipentanoate] | 7.54 | 7.31 | 7.96 | 7.89 |
| COC(=O)CCCCS(=O)(CCCCC(=O)OC)=NC(=O)c1cnc(N)c(C#Cc2cccc(C(=O)Nc3ccc(F)c(Cl)c3)c2)c1 [Example 15, Dimethyl 5,5′-[N-({6-amino-5-[(3-{[(3-chloro-4-fluorophenyl)amino]carbonyl}phenyl)ethynyl]pyridin-3-yl}carbonyl)sulfonimidoyl]dipentanoate] | 7.17 | 7.96 | 7.82 |  |
| COC(=O)CCCCS(=O)(CCCCC(=O)OC)=NC(=O)c1cnc(N)c(C#Cc2cccc(C(=O)Nc3cccc(C)c3)c2)c1 [Example 12, Dimethyl 5,5′-[N-({6-amino-5-[(3-{[(3-methylphenyl)amino]carbonyl}phenyl)ethynyl]pyridin-3-yl}carbonyl)sulfonimidoyl]dipentanoate] | 7.24 | 9.00 | 8.10 |  |
| COC(=O)CCCCS(=O)(CCCCC(=O)OC)=NC(=O)c1cnc(N)c(C#Cc2cccc(C(=O)Nc3cc(C(C)(C)C)on3)c2)c1 [Example 16, Dimethyl 5,5′-[N-({6-amino-5-[(3-{[(5-tert-butylisoxazol-3-yl)amino]carbonyl}phenyl)ethynyl]pyridin-3-yl}carbonyl)sulfonimidoyl]dipentanoate] | 7.70 |  | 7.55 | 7.57 |
| COC(=O)CCCCS(=O)(CCCCC(=O)OC)=NC(=O)c1cnc(N)c(C#Cc2cccc(C(=O)Nc3ccc(OC)c(Cl)c3)c2)c1 [Example 13, Dimethyl 5,5′-[N-({6-amino-5-[(3-{[(3-chloro-4-methoxyphenyl)amino]carbonyl}phenyl)ethynyl]pyridin-3-yl}carbonyl)sulfonimidoyl]dipentanoate] | 7.42 | 8.30 | 8.05 |  |
| COC(=O)CCCCS(=O)(CCCCC(=O)OC)=NC(=O)c1cnc(N)c(C#Cc2cccc(NC(=O)c3cccc(Cl)c3)c2)c1 [Example 6] | 7.68 | 9.00 | 7.96 |  |
| COC(=O)CCCCS(=O)(CCCCC(=O)OC)=NC(=O)c1cnc(N)c(C#Cc2cccc(C(=O)Nc3ccc(Cl)c(C(F)(F)F)c3)c2)c1 [Example 17, Dimethyl 5,5′-{N-[(6-amino-5-{[3-({[4-chloro-3-(trifluoromethyl)phenyl]amino}carbonyl)phenyl]ethynyl}pyridin-3-yl)carbonyl]sulfonimidoyl}dipentanoate] | 7.44 |  | 7.43 | 7.49 |
| COC(=O)CCCCS(=O)(CCCCC(=O)OC)=NC(=O)c1cnc(N)c(C#Cc2cccc(NC(=O)Nc3cc(C)ccc3F)c2)c1 [Example 18, Dimethyl 5,5′-{N-[(6-amino-5-{[3-({[(2-fluoro-5-methylphenyl)amino]carbonyl}amino)phenyl]ethynyl}pyridin-3-yl)carbonyl]sulfonimidoyl}dipentanoate] |  | 7.64 | 8.00 |  |
| COC(=O)CCCCS(=O)(CCCCC(=O)OC)=NC(=O)c1cnc(N)c(C#Cc2cccc(NC(=O)c3cccc([S+](C)[O-])c3)c2)c1 (centres unmarked) [Example 8, Dimethyl 5,5′-[N-({6-amino-5-[(3-{[3-(methylsulfinyl)benzoyl]amino}phenyl)ethynyl]pyridin-3-yl}carbonyl)sulfonimidoyl]dipentanoate] |  | 8.22 | 7.92 |  |
| COC(=O)CCCCS(=O)(CCCCC(=O)OC)=NC(=O)c1cnc(N)c(C#Cc2cccc(NC(=O)c3cccc(C)c3)c2)c1 [Example 1, Dimethyl 5,5′-(N-{[6-amino-5-({3-[(3 methylbenzoyl)amino]phenyl}ethynyl)pyridin-3-yl]carbonyl}sulfonimidoyl)dipentanoate] | 7.60 | > 9.00 | 8.05 |  |
